The nature of data set [1]: Maltose and glucose profiles in cell-free conditioned media. It is filed as physicochemical. The conditions noted are these: cell-free conditioned media of Days 2, 4, 6, 8; 3 g/l maltose; 37° C., 3 days. The method, then:
In (A) SH87 cell were routinely maintained in glucose-only PFCDM was sub-cultivated into PFCDM with 4 g/l glucose, or 4 g/l glucose+3 g/l maltose. On Days 2, 4, 6 and 8, cell-free conditioned medium (CM) were harvested from both cultures. Viable cell densities (lined marker) and culture viabilities (marker only) were also monitored. In (B) CM from the maltose supplemented culture were incubated for a further 3 days at 37° C. Samples were harvested daily from these CM, starting from the day of harvest, to determine glucose and maltose concentrations. In (C) CM harvested from the glucose culture were spiked with maltose to a final concentration of 3 g/l prior to further incubation at 37° C. Samples from these CM were harvested daily for a further three (3) days to determine glucose and maltose concentrations. The averages and standard deviations from two (2) replicate shake flasks were plotted.
To further validate that the maltose was indeed utilized by the cells and not hydrolyzed in the culture media, cell-free conditioned media (CM) from Days 2, 4, 6 and 8 were obtained from a 3 g/l maltose supplemented culture as well as a 4 g/l glucose culture. 3 g/l maltose was spiked into the CM from the glucose culture, and both sets of CM were monitored over 3 days for changes in glucose and maltose concentrations at 37° C. (FIG. 4). […]

In a further data set the test system is SH87 cells. Put plainly: Specific maltose consumption rate, Monod model. The data set is classed as cell-based, Chinese Hamster. The conditions noted are these: non-linear regression. The protocol: Specific substrate consumption rate (qs) between culture times t1 and t2 was determined by plotting substrate concentration (S) vs IVCD according to Equation 4. −qs=(St2−St1)/IVCD St2=−qs×IVCD+St1 Equation 4
Specific substrate consumption rate (qs) was fitted into a Monod model according to Equation 5, where qs_max is the maximum specific substrate consumption rate, S is the substrate concentration, and Ks is the affinity constant. qs=(qs_max×S)/(Ks+S) Equation 5
To characterize the maltose metabolism in the maltose supplemented cultures, the specific maltose consumption rates were obtained from plots of maltose concentrations against cumulative integral viable cell densities (IVCD) according to Equation 4. […] Comparing with published specific monosaccharide consumption rates using 3.6 g/l of monosaccharides (Altamirano et al., 2000), the maximum specific maltose consumption rate determined here is similar to the specific consumption rates of fructose (0.21 ng/cell/day) and galactose (0.21 ng/cell/day) while being lower than the measured specific consumption rates of glucose (0.76 ng/cell/day) and mannose (0.88 ng/cell/day). […] While the present inventors noted that these parameters can be more accurately determined in continuous cultures, it may be practically challenging at low maltose concentrations since growth rates will be low.

Data set [2] has as its system CHO-K1 cells. Put plainly: Adaptation of CHO-K1 cells into HyQ PF-CHO media with different disaccharides. The conditions noted are these: 3.6 g/l sugar. The data set is classed as cell-based, Chinese Hamster. The protocol:
Viable cell density and culture viability were determined by Trypan blue dye exclusion method using Vi-Cell XR Cell Viability Analyzer (Beckman Coulter, Brea, CA) according to manufacturer's instructions. For biochemical and other cell culture parameter analyses, 1 ml of culture sample was centrifuged at 8000 g for 10 minutes to obtain clarified supernatant. […] At each passage during the adaptation process, viable cell density and culture viability before passage and after inoculation into fresh media were determined. […] Osmolality of these culture media were determined to be between 308 and 324 mOsm/kg, well within the range for optimal mammalian cell culture. The viable cell densities and culture viabilities of these cultures at the beginning and end of each passage over a period of 74 days are shown in FIG. 1. […] However, culture viabilities and viable cell densities of the maltose culture started to pick up on Day 14. Proliferation of the cells in maltose culture then maintained over the period of the time studied, while those in the other disaccharides were terminated on Day 31 due to the lack of cell growth and depressed culture viabilities.

For data set [3], the system named is CHO-K1 cells. Put plainly: Shake flask batch growth and biochemical profiles of CHO-K1 in maltose or glucose medium. The data set is classed as cell-based, Chinese Hamster. The method, then:
Viable cell density and culture viability were determined by Trypan blue dye exclusion method using Vi-Cell XR Cell Viability Analyzer (Beckman Coulter, Brea, CA) according to manufacturer's instructions. For biochemical and other cell culture parameter analyses, 1 ml of culture sample was centrifuged at 8000 g for 10 minutes to obtain clarified supernatant. Concentrations of ammonium, glutamine, glucose and lactate were analyzed by the BioProfile 100 Plus (Nova Biomedical, Waltham, MA). Osmolality was measured using a vapor pressure osmometer (Vapro 5520, Wescor, Logan, UT), according to manufacturer's instructions. Maltose concentration was quantified using Maltose Colorimetric/Fluorometric Assay Kit (Biovision, Milpitas, CA), according to manufacturer's instructions. […] Cells were cultivated in single-use Erlenmeyer flasks (Corning), with a cell seeding density of 0.3×10^6 cells/ml in duplicates. Cell culture samples were collected and analyzed daily throughout the duration of the growth profile experiment until culture viabilities fell below 50%. When necessary, culture supernatant samples were stored at -20° C. for further analysis. […]0)=μt Equation 1

Where [4] appears, read: CHO-K1 maltose culture, 3.6 g/l.

As to `OC[C@H]1O[C@H](O[C@H]2[C@H](O)[C@@H](O)[C@H](O)O[C@@H]2CO)[C@H](O)[C@@H](O)[C@@H]1O` [maltose], in data set [1], the “maltose hydrolysis in conditioned culture media” value is “not occurring spontaneously”. In the data set on SH87 cells, the “affinity constant (Ks)” value was 7.03 g/L and the “maximum specific maltose consumption rate (qs_max)” value came to 0.257 ng/cell/day. Besides, in the data set on CHO-K1 cells [2], the “day on which culture viabilities and viable cell densities started to pick up” value is 14 days. Moreover, the “proliferation in serum-free protein-free culture medium with the sugar as sugar source” value in the data set on CHO-K1 cells [2] (seeding 0.3×10^6 cells/ml, 74 days) is on record as “can proliferate”. For the same molecule, in the data set on CHO-K1 cells [3] (CHO-K1, 3.6 g/l sugar), the “culture viabilities maintained over a longer period of time compared to glucose” value is listed as “greater than 80%”, the “day on which glutamine was completely utilized” value worked out at 5 days and the final ammonium concentration worked out at 0.20 g/L. The doubling time with CHO-K1 cells [3] (CHO-K1, 3.6 g/l sugar, viable cell density data till Day 4) is given as 53.7 h. Further, in the data set on CHO-K1 cells [3] (CHO-K1, HyQ PF-CHO, 3.6 g/l sugar, initial 0.3×10^6 cells/ml, maltose Day 7, glucose Day 6), the “maximum viable cell density” value is given as 1.4×10^6 cells/ml. Further, in the data set with CHO-K1 cells [3] (setting [4]), the “glucose in the culture medium” value is “not detectable” and the lactate production entry is recorded as “lack of lactate production”.

The values are drawn from US12454675B2, “Method of increasing protein yield in mammalian cells in serum-free culture medium” (AGENCY FOR SCIENCE, TECHNOLOGY AND RESEARCH, priority 2016, dated 2025).
